Earlier results in US10441617B2, “Breeding, production, processing and use of medical cannabis” (priority 2013, dated 2019).
Like-named read-outs stand apart in the source and are kept apart here.

How the values were obtained:
cannabinoid receptor CB1 = cannabinoid receptor CB1 (Homo sapiens, UniProt P21554)
GPR55 = GPR55 (Homo sapiens, UniProt Q9Y2T6)
[1] = CBD 1-10 mg/kg IP over 21 days with equivalent doses of delta-9-THC
5-HT1A receptor = target: T1, 5-HT1A receptor (Homo sapiens, UniProt P08908)
T1 sequence (P08908 1-422): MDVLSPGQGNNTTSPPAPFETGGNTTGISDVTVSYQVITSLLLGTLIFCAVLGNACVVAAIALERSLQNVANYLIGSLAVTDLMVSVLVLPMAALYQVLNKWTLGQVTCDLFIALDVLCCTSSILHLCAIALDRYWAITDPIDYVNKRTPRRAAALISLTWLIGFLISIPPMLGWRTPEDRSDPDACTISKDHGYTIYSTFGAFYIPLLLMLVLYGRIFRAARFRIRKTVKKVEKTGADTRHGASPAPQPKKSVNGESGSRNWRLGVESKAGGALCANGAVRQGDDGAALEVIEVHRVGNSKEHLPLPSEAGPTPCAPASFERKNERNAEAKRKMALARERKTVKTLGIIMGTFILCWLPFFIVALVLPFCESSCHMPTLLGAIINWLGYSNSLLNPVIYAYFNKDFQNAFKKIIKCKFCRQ

[2] = test system: aggressive human breast cancer cells; conditions: in vitro
CB2 receptor = CB2 receptor (Homo sapiens, UniProt P34972)
CB2 receptor, sequence (P34972 whole entry): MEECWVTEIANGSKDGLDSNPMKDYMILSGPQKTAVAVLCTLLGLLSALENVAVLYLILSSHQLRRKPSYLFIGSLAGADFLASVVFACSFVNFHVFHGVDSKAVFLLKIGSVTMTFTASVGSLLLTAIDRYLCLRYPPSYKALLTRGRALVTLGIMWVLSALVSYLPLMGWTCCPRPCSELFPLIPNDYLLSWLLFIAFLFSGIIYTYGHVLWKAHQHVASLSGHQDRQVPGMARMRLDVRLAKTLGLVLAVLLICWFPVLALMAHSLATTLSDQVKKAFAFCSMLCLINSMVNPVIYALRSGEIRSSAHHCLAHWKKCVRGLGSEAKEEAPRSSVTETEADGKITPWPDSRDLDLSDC

[3] = test system: Mu and Delta opioid receptor sites

cannabinoid receptor CB1, sequence (P21554 whole entry): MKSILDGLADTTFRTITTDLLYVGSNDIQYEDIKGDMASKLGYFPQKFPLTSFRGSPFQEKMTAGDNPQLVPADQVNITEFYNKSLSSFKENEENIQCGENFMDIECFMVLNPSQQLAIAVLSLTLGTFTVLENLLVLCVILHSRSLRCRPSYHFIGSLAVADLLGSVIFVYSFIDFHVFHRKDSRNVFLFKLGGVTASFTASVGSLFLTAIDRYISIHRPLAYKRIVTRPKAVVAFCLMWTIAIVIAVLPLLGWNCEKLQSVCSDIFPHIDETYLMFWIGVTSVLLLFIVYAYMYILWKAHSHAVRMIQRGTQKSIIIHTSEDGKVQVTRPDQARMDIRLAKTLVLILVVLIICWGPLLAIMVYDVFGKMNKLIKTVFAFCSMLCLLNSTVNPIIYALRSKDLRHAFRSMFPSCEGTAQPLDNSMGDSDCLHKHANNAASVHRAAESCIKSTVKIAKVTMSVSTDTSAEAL
GPR55, sequence (Q9Y2T6 whole entry, species assumed): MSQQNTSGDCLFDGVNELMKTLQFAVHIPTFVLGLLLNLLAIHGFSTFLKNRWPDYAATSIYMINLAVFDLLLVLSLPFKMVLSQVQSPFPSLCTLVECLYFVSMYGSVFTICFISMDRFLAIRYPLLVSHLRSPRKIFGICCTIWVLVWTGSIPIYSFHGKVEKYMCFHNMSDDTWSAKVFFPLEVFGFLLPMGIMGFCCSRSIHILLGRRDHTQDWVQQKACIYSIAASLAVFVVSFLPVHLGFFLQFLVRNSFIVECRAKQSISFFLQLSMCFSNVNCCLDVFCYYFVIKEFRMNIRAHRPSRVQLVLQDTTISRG

C=C(C)[C@@H]1CCC(C)=C[C@H]1c1c(O)cc(CCCCC)cc1O [CBD, Cannabidiol]
Effect of CBD on the effects of delta-9-THC (ratio of CBD/delta-9-THC 1.8): enhanced the effects of delta-9-THC | Effect of CBD on the effects of delta-9-THC (ratio of CBD/delta-9-THC around 8.1): antagonistic effects | Activity at CB1 receptor (cannabinoid receptor CB1): no affinity | Activity at GPR55 (GPR55): antagonist | Behavioral effects of delta-9-THC [1]: augmented the anxiogenic and locomotor suppressant effects and social interaction deficits | Blood and brain levels of delta-9-THC [1]: increased blood and brain levels | Activity at 5-HT1A receptor (5-HT1A receptor): 5-HT1A receptor agonist | Growth of aggressive human breast cancer cells [2]: reduces growth | Activity at CB2 receptor (CB2 receptor): no affinity | Activity at Mu and Delta opioid receptor sites [3]: allosteric modulator

CCCCCc1cc(O)c(C/C=C(\C)CCC=C(C)C)c(O)c1 [CBG, Cannabigerol]
Activity at CB1 receptor (cannabinoid receptor CB1): low affinity CB1 receptor antagonist | Activity at 5-HT1A receptor (5-HT1A receptor): moderate affinity 5-HT1A receptor antagonist | Activity at CB2 receptor (CB2 receptor): binds to the CB2 receptor | Activity at α2-adrenergic receptor (α2-adrenergic receptor): high affinity α2-adrenergic receptor agonist

CCCCCc1cc(O)c2c(c1)OC(C)(C)c1ccc(C)cc1-2 [CBN, Cannabinol]
Activity at CB1 receptor (cannabinoid receptor CB1): weak agonist | Activity at CB2 receptor (CB2 receptor): weak agonist

CCCCCc1cc(O)c2c(c1)OC(C)(C)[C@@H]1CCC(C)=CC21 (stereo partly drawn) [THC, delta-9-tetrahydrocannabinol]
Activity at CB2 receptor (CB2 receptor): partial agonist activity

CCCc1cc(O)c2c(c1)OC(C)(C)[C@@H]1CCC(C)=C[C@@H]21 [THCV, Tetrahydrocannabivarin]
Activity at CB1 receptor (cannabinoid receptor CB1): CB1 receptor antagonist
